Data reported in patent publication US20020156265A1, “DNA encoding a GABABR2 polypeptide and uses thereof” (priority 1998, published 2002).
“Also recorded” adds a separate entry of the source. Like-named read-outs stand apart in the source and are kept apart here.

Experiments:
[1] = biological target: T1, GABABR1b/GABABR2 (Rattus norvegicus, UniProt Q9Z0U4); test: GIRK currents in HEK-293 cells transiently transfected with GABABR1b/GABABR2 + GIRKs (whole-cell patch clamp); format: cell-based; parameters: ligated to a PCR fragment containing the missing base pairs to obtain the full length clone; expressed in transfected cells; conditions: HEK-293 doubly transfected cells; CGP55845 at 1 μM, Ba++ 100 μM
Procedure: The ability of the rat GABABR1 and GABABR2 genes to activate GIRK currents in mammalian cells was investigated by transient transfection of HEK-293 cells followed by voltage clamp analysis of currents. HEK-293 cells were maintained in Dulbecco's modified Eagle medium (DMEM) plus 10% (v/v) bovine calf serum, 2% L-glutamine, 50 U/ml penicillin, and 50 μg/ml streptomycin and were incubated at 37° C. in a humidified 5% CO2 atmosphere. Cells were harvested twice each week by treatment with 0.25% trypsin/1 mM EDTA in Hank's Salts and re-seeded at 20% of their original density either into 75 cm^2 flasks (for passaging) or into 35 mm tissue culture dishes (for transfection and electrophysiology experiments).
HEK-293 cells, 40%-80% confluent, were co-transfected with various combinations of 0.6 ug each of the following plasmids: pGreen Lantern-1 (Gibco/BRL, Gaithersburg, Md.), human GIRK1 (JS1800), human GIRK4 (JS1741), rat GABABR1b (BO58), and rat GABABR2 (BO55). Cells were transiently transfected using the Superfect Transfection Reagent from Qiagen (Valencia, Calif.) according to the manufacturer's instructions. Briefly, 3 μg total plasmid DNA were incubated with 22.5 μl Superfect Reagent in 100 μl serum-free DMEM for 5-10 minutes at room temperature. After addition of 600 μl complete DMEM, the DNA/Superfect mixture was transferred to cells growing in 35 mm dishes coated with poly-D-lysine and incubated for 2-4 hours at 37° C. in a 5% CO2 incubator. Subsequently, the dishes were washed once with phosphate-buffered saline and 2 ml complete DMEM was added. Cells were incubated for 24-72 hours at 37° C. before performing electrophysiological measurements.
The whole-cell configuration of the patch-clamp technique was used with glass pipettes having resistances of 2-4 MΩ when filled with the pipette solution. […] GIRK currents were recorded in elevated K^+ solution containing 25 mM K^+ and a correspondingly lower concentration of Na^+. Voltage clamp recordings were made with an EPC-9 amplifier using Pulse+PulseFit software (HEKA Elektronik). Series resistances were kept below 10 Mohm and no attempt was made to provide series resistance compensation. Currents were low-pass filtered at 1 kHz and digitized at a rate of 5 kHz. Unless otherwise noted, experiments were performed at room temperature on cells voltage clamped at a holding potential of −70 mV. […] The time to complete solution exchange was about 100 ms. The bath was constantly perfused at a low rate with control solution.

[2] = rhesus monkeys; cited from earlier work
[3] = aged rats; cited from earlier work
[4] = biological target: GABABR1 (Rattus norvegicus, UniProt Q9Z0U4); test: Radioligand binding, [3H]-CGP54626, membranes of COS-7 or HEK293 cells expressing GABABR1; conditions: for pKi: Displacement of [3H]-CGP54626 from COS-7 cells expressing GABABR1
Procedure: (§1) Transfected cells from culture flasks were scraped into 5 mL of Tris-HCl, 5 mM EDTA, pH 7.5, and lysed by sonication. The cell lysates were centrifuged at 1000 rpm for 5 min. at 4° C., and the supernatant was centrifuged at 30,000×g for 20 min. at 4° C. The pellet was suspended in binding buffer (50 mM Tris-HCl, 2.5 mM CaCl2 at pH 7.5 supplemented with 0.1% BSA, 2 μg/mL aprotinin, 0.5 mg/mL leupeptin, and 10 μg/mL phosphoramidon). […] In equilibrium saturation binding assays membrane preparations were incubated in the presence of increasing concentrations of labeled compound. […] Binding reaction mixtures were incubated for 1 hr at 30° C., and the reaction was stopped by filtration through GF/B filters treated with 0.5% polyethyleneimine, using a cell harvester. […] Data were analyzed by a computerized non-linear regression program. Non-specific binding was defined as the amount of radioactivity remaining after incubation of membrane protein in the presence of excess unlabeled compound. Protein concentration may be measured by the Bradford method using Bio-Rad Reagent, with bovine serum albumin as a standard.

[5] = biological target: T1, GABABR1b/GABABR2; test: GIRK currents in Xenopus oocytes expressing GABABR1b/GABABR2 + GIRKs (voltage clamp); format: cell-based; parameters: ligated to a PCR fragment containing the missing base pairs to obtain the full length clone; linearized DNA plasmids containing the complete coding region of the gene; expressed in transfected cells; host or cells: Xenopus laevis oocytes, mRNA injection; conditions: for pKB: GABABR1 + GABABR2, oocytes, antagonist, measured using GABA as agonist, n = 4-6 oocytes; for Shift of the GABA concentration-response curve: CGP55845 at 50 nM, CGP54626 at 5 μM, FIG. 15B
Procedure: Human heart cDNA was used as template together with the primers
Dual electrode voltage clamp (“GeneClamp”, Axon Instruments Inc., Foster City, Calif.) is performed using 3 M KCl-filled glass microelectrodes having resistances of 1-3 Mohms. […] Experiments are carried out at room temperature.
Fits were made with a Marquardt-Levenberg non-linear least-squares curve fitting algorithm.

[6] = biological target: GABABR1/R2 (Rattus norvegicus, UniProt Q9Z0U4); test: Radioligand binding, membranes from cells co-transfected with GABABR1/R2
Procedure: as §1

[7] = biological target: rat GABABR1/rat GABABR2 (Rattus norvegicus, UniProt Q9Z0U4); test: Microphysiometry (extracellular acidification) in CHO cells co-expressing rat GABABR1/rat GABABR2; conditions: 100 nM CGP55845, pretreatment with PTX
Procedure: GABABR1, GABABR2 or the combination, were transiently expressed in CHO-K1 cells by liposome mediated transfection according to the manufacturer's recommendations (“LipofectAMINE”, GibcoBRL, Bethesda, Md.), and maintained in Ham's F-12 medium with 10% bovine serum. […] The recording paradigm consisted of a 100 ml/min flow rate and a 30 s flow interruption during which the rate measurement was taken. Challenges involved an 80 s drug exposure just prior to the first post-challenge rate measurement being taken, followed by two additional pump cycles. Acidification rates reported are expressed as a percentage increase of the peak response over the baseline rate observed just prior to challenge.

[8] = biological target: T2, GABABR2 (Rattus norvegicus, UniProt O88871); test: Radioligand binding, membranes of HEK293 or COS-7 cells expressing GABABR2
T2 sequence (O88871 41-940): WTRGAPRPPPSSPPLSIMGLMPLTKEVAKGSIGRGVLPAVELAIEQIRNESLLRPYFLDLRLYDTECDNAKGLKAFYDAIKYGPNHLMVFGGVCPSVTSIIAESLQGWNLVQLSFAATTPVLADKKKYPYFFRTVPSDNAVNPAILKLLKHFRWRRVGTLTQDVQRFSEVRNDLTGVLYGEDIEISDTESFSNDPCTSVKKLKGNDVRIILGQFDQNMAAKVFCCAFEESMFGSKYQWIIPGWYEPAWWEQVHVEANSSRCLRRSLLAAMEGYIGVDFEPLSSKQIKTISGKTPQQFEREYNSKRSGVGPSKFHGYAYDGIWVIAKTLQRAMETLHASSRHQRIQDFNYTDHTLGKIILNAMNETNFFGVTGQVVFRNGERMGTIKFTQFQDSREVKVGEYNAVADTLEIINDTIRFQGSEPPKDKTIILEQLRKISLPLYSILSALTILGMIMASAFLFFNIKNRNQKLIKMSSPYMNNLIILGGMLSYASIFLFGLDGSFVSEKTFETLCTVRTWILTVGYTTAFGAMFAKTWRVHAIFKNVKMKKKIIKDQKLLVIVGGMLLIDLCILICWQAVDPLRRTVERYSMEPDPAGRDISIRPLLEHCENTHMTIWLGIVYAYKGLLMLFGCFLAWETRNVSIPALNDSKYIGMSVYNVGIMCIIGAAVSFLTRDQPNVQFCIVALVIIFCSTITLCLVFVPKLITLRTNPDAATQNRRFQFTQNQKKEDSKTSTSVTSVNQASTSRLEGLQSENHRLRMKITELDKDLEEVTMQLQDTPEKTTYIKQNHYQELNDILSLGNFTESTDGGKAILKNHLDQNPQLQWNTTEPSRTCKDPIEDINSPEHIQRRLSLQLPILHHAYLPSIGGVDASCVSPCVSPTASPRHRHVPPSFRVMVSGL
Procedure: as §1

[9] = rat, in vivo; cited from earlier work
[10] = tested on: GABA receptors; conditions: in vivo; cited from earlier work
[11] = biological target: rat GABABR2 (rat) (UniProt O88871); test: cell-based or functional assay
[12] = biological target: rat GABABR2 (rat) (UniProt O88871); test: cell-based or functional assay; remark: listed apart in the source

GABABR1, sequence (Q9Z0U4 1-844 isoform Q9Z0U4-3): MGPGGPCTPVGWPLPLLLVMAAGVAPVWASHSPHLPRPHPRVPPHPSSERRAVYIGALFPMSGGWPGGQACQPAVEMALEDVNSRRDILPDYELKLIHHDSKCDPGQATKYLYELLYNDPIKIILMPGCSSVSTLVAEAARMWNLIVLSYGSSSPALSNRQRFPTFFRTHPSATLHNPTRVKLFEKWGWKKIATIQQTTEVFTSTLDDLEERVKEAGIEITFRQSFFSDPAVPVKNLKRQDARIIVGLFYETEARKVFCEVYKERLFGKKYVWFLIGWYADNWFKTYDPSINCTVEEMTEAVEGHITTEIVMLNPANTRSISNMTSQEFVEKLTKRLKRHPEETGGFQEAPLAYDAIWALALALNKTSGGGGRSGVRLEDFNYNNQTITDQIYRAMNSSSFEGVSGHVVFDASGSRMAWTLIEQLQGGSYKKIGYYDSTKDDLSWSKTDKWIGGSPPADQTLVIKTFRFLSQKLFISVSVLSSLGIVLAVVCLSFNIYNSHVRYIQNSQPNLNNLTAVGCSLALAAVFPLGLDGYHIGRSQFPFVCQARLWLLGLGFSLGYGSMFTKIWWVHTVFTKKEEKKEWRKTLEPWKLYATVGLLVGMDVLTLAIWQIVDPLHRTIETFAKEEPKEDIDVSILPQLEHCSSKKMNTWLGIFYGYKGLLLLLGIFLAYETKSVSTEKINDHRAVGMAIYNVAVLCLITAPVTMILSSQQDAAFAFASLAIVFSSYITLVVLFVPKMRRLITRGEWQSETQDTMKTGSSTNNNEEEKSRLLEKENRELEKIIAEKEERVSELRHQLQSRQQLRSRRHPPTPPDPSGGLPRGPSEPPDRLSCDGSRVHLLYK
GABABR1/R2, sequence (Q9Z0U4 1-844 isoform Q9Z0U4-3, one chain of several): as the sequence (Q9Z0U4 1-844 isoform Q9Z0U4-3) above
T1 sequence (Q9Z0U4 1-844 isoform Q9Z0U4-3, one chain of several): as the sequence (Q9Z0U4 1-844 isoform Q9Z0U4-3) above
rat GABABR1/rat GABABR2, sequence (Q9Z0U4 1-844 isoform Q9Z0U4-3, one chain of several): as the sequence (Q9Z0U4 1-844 isoform Q9Z0U4-3) above

Molecule: [Ba+2] [Ba^++]
- Block of GABA-elicited currents [1]: completely blocked

Molecule: CCCCP(=O)(O)CCCN [CGP36742]
- Performance in conditioned spatial color task [2]: improve
- Learning performance [3]: improve learning performance

Molecule: C[C@H](NC[C@H](O)CP(=O)(O)CC1CCCCC1)c1ccc(Cl)c(Cl)c1 [CGP54626]
- pKi [4]: 8.95
- pKB [5]: 7.48
- Shift of the GABA concentration-response curve ([5]; oocytes): Right-ward shifts
- Binding profile compared with GABABR1 alone [6]: not different from those transfected with GABABR1 alone

Molecule: C[C@H](NC[C@H](O)CP(=O)(O)Cc1ccccc1)c1ccc(Cl)c(Cl)c1 [CGP55845]
- Block of GABA-elicited currents [1]: completely blocked; also recorded: abolished
- pKi [4]: 8.7
- pKB [5]: 8.60
- Block of currents stimulated by GABA ([5]; oocytes, CGP55845 1 μM, reversible): completely blocked
- Shift of the GABA concentration-response curve ([5]; oocytes): Right-ward shifts
- Binding profile compared with GABABR1 alone [6]: not different from those transfected with GABABR1 alone
- Block of baclofen-stimulated acidification response [7]: blocked

Molecule: CC1(C)CO[C@@H](CC(=O)O)CN1 [SCH-50911]
- Binding profile compared with GABABR1 alone [6]: not different from those transfected with GABABR1 alone

Molecule: C[C@H](NC[C@H](O)CP(=O)(O)CC1CCCCC1)c1ccc(Cl)c(Cl)c1 [[^3H]-CGP54626]
- Labeling of membranes by radioligand ([4]; HEK293 or COS-7 cells expressing GABABR1): labeled
- Labeling of membranes by radioligand [8]: not those expressing GABABR2

Molecule: NCC(CC(=O)O)c1ccc(Cl)cc1 (stereo not drawn) [baclofen]
- Reinforcing effects of cocaine [9]: attenuate the reinforcing effects of cocaine

Molecule: NCC(CP(=O)(O)O)c1ccc(Cl)cc1 (stereo not drawn) [phaclofen]
- Dopamine release in the ventral pallidum [10]: increased dopamine release

Molecule: pertussis toxin
- Effect on GABA-stimulated currents ([5]; oocytes injected with pertussis toxin 2 ng/oocyte 6 h before voltage clamping): abolished
- Block of baclofen-stimulated acidification response [7]: blocked

Molecule: rat GABABR1a (from UniProt Q9Z0U4 20-960) (receptor)
- K+ (GIRK) currents in response to 100 µM GABA, HEK-293 cells [11]: 1050 pA

Molecule: rat GABABR1b (from UniProt Q9Z0U4 164-960) (receptor)
- Magnitude of GIRK currents stimulated by GABA, HEK-293, mean (pA) [12]: 470 pA
- Magnitude of GIRK currents stimulated by GABA, oocytes, mean (nA) [12]: 832 nA
- Magnitude of GIRK currents stimulated by GABA, HEK-293, mean (pA) [11]: 658 pA
- Magnitude of GIRK currents stimulated by GABA, oocytes, mean (nA) [11]: 1400 nA
- agonist-evoked extracellular acidification rate, microphysiometer, co-transfected CHO cells [11]: 9 fold
